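Test compounds were applied to cells in 96-well plates for 48 hours at 5 doses. The concentration for full growth arrest is given as TGI.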

Consider 18 molecules from PubChem BioAssay (NCI).

Some test systems named below: HT29 colon; UACC-257 melanoma; SNB-19 CNS; SF-539 CNS; SF-295 CNS; HOP-92 NSCLC; CAKI-1 renal; HS 578T breast; PC-3 prostate; BT-549 breast.
Test in all cases: NCI tumour cell line growth inhibition, 48 h

Turning to `Cc1c(C(=O)CC(=O)C(=O)Nc2cc(Cl)ccc2Cl)[n+](=O)c2ccccc2n1[O-]`, the TGI in the experiment on HT29 colon, in the experiment with UACC-257 melanoma, with SNB-19 CNS, in the experiment with SF-539 CNS, in the experiment with SF-295 CNS and in the experiment on HOP-92 NSCLC was above 100 µM each time. Further, in the experiment on CAKI-1 renal, the TGI is above 100 µM.
For the molecule `CC1=NOC(=O)C1N=Nc1ccc(Br)c(C)c1` (stereo not drawn), the TGI was above 100 µM in the experiment with HT29 colon; 35.4 µM with UACC-257 melanoma; 92.8 µM with SNB-19 CNS; 44.6 µM with SF-539 CNS; 66.4 µM in the experiment with SF-295 CNS; 34.4 µM in the experiment on HOP-92 NSCLC. For the same molecule, the TGI in the experiment with CAKI-1 renal was determined as 30.8 µM.
`CC(=O)Nc1ccc(/C=C2/NC(=S)N(/C=C3\C(=O)Oc4ccccc4C3=O)C2=O)cc1`: the TGI with HT29 colon, in the experiment on UACC-257 melanoma, in the experiment with SNB-19 CNS, in the experiment with SF-539 CNS, in the experiment with HS 578T breast and in the experiment with SF-295 CNS was above 100 µM throughout. The TGI with HOP-92 NSCLC, in the experiment on PC-3 prostate and in the experiment on CAKI-1 renal was above 100 µM in each case.
As for `O=c1cc(-c2ccccn2)[nH]c2cc(F)ccc12`, the TGI in the experiment on HT29 colon, in the experiment on UACC-257 melanoma, in the experiment with SNB-19 CNS, with SF-539 CNS, in the experiment on SF-295 CNS and in the experiment with HOP-92 NSCLC was above 100 µM in each case.
Consider `O=C(CSc1nc(-c2ccccc2)c(-c2ccccc2)[nH]1)NNC(=S)Nc1ccccc1`, for which the TGI with HT29 colon, in the experiment with UACC-257 melanoma, in the experiment with SNB-19 CNS, in the experiment on SF-539 CNS, in the experiment on SF-295 CNS and with HOP-92 NSCLC was above 100 µM in each case. The TGI in the experiment on CAKI-1 renal was above 100 µM.
In the case of `Cc1ccc(/C=C2/NC(=S)SC2=O)cc1`, the TGI with HT29 colon was above 100 µM; in the experiment on UACC-257 melanoma it was above 100 µM; in the experiment with SNB-19 CNS, above 100 µM; in the experiment on SF-539 CNS, above 100 µM; in the experiment on SF-295 CNS it was above 100 µM; in the experiment with BT-549 breast, 54.2 µM. In addition, the TGI was above 100 µM in the experiment on HOP-92 NSCLC, above 100 µM with PC-3 prostate and 51.1 µM in the experiment on CAKI-1 renal.
For the molecule `Clc1ccc(-c2c(C3=NCCN3)nnn2-c2ccccc2)cc1`, the TGI in the experiment on HT29 colon, with UACC-257 melanoma, with SNB-19 CNS, in the experiment on SF-539 CNS, with SF-295 CNS and in the experiment with HOP-92 NSCLC was above 100 µM throughout. This molecule displayed a TGI with CAKI-1 renal above 100 µM.
Take `CCCCCCCCCCCCCC(=O)NCC(OCC)OCC`: the TGI with HT29 colon, with UACC-257 melanoma, with SNB-19 CNS, in the experiment with SF-539 CNS, in the experiment with SF-295 CNS and with HOP-92 NSCLC was above 100 µM throughout.
Regarding `CC1(C)C(=O)C=CC2(C)C1CC(O)C1(C)C2CCC2(C)C(c3ccoc3)OC(=O)C3OC321` (stereo not drawn), the TGI in the experiment with HT29 colon is 33.7 µM; in the experiment with SNB-19 CNS, 44.3 µM; in the experiment with SF-295 CNS, 53.1 µM; in the experiment with BT-549 breast, 41.1 µM; in the experiment on HOP-92 NSCLC it was 38.5 µM; with PC-3 prostate, above 100 µM. In the experiment with CAKI-1 renal, this molecule displayed a TGI of 31.4 µM.
As for `COC(=O)[C@H]1N[C@@H](C(=O)OC)C23CCC[C@H]2CC[C@]1(C(OC)OC)C3`, the TGI with HT29 colon, with UACC-257 melanoma, in the experiment on SNB-19 CNS, in the experiment with SF-539 CNS, in the experiment with SF-295 CNS and with HOP-92 NSCLC was above 100 µM throughout. Also, the TGI in the experiment with CAKI-1 renal is above 100 µM.
As for `COc1cc(C2c3cc4c(cc3[C@@H](OCCN(C)C)C3COC(=O)[C@H]23)OCO4)cc(OC)c1O` (stereo partly drawn), the TGI in the experiment with HT29 colon is 2.43 µM; with UACC-257 melanoma it was 8.25 µM; with SNB-19 CNS, above 22.3 µM; in the experiment on SF-539 CNS it was 0.702 µM; in the experiment on SF-295 CNS it was 0.998 µM; in the experiment on HOP-92 NSCLC, 1.55 µM. The molecule further registered a TGI in the experiment with CAKI-1 renal of 1.33 µM.
Regarding `O=C(O)Cc1ccccc1CCc1ccccc1Cl`, the TGI in the experiment on HT29 colon, in the experiment with UACC-257 melanoma, in the experiment with SNB-19 CNS, with SF-539 CNS, with SF-295 CNS and with HOP-92 NSCLC was above 100 µM in each case. This molecule also had a TGI in the experiment on CAKI-1 renal above 100 µM.
With `Cc1c(Cl)cccc1NC(=O)/C(Cl)=C(\Cl)C(=O)O`, the TGI with HT29 colon was 38 µM; in the experiment with UACC-257 melanoma it was 36.7 µM; in the experiment on SNB-19 CNS it was above 100 µM; in the experiment with SF-539 CNS it was 31.7 µM; in the experiment on SF-295 CNS it was 37.9 µM; in the experiment with HOP-92 NSCLC, 31.6 µM. The same molecule returned a TGI in the experiment on CAKI-1 renal of 33.9 µM.
On to `COc1ccc(N2C(=O)C3c4[nH]c5ccccc5c4C4CCCCCCC4C3C2=O)cc1` (stereo not drawn), for which the TGI was above 100 µM in the experiment with HT29 colon; above 100 µM in the experiment with UACC-257 melanoma; 28.1 µM in the experiment on SNB-19 CNS; 21.5 µM in the experiment on SF-539 CNS; 26 µM in the experiment on SF-295 CNS; 33.4 µM in the experiment on HOP-92 NSCLC. In addition, in the experiment on CAKI-1 renal, the TGI came to 39.5 µM.
Consider `CN1C(=O)C2C=CC1C1CCC2N(C)C1=O` (stereo not drawn), for which the TGI in the experiment on HT29 colon, with UACC-257 melanoma, in the experiment on SNB-19 CNS, in the experiment with SF-539 CNS, in the experiment with SF-295 CNS and with HOP-92 NSCLC was above 100 µM throughout. The molecule also displayed a TGI in the experiment on CAKI-1 renal above 100 µM.
As for `CCOC(=O)C1=C(Nc2ccc(Cl)c(Cl)c2)OC/C1=N\NC(=O)Cc1ccccc1`, the TGI in the experiment on UACC-257 melanoma, in the experiment on SNB-19 CNS, in the experiment with SF-539 CNS, with SF-295 CNS and in the experiment with CAKI-1 renal was above 100 µM each time.
For `COc1cc(C2c3cc4c(cc3[C@@H](N(C)C)[C@H]3COC(=O)C23)OCO4)cc(OC)c1O` (stereo partly drawn), the TGI in the experiment with HT29 colon was above 100 µM; with UACC-257 melanoma it was above 100 µM; in the experiment on SF-539 CNS, 53.8 µM; with HOP-92 NSCLC, 68.1 µM; with CAKI-1 renal it was 99 µM.
As for `NC(=S)NNC(=S)NC(=O)c1ccco1`, the TGI in the experiment on HT29 colon, with UACC-257 melanoma, in the experiment on SNB-19 CNS, with HS 578T breast, in the experiment on HOP-92 NSCLC and in the experiment with CAKI-1 renal was above 10 µM throughout.
